Source: ChEMBL document CHEMBL4507286 (2021)

What was measured:
[1] = target: Cyclin-dependent kinase 14 (Homo sapiens) (UniProt O94921)
[2] = target: Serine/threonine-protein kinase ICK (Homo sapiens) (UniProt Q9UPZ9)
[3] = target: Dual specificity mitogen-activated protein kinase kinase 6 (Homo sapiens) (UniProt P52564)
[4] = target: Tyrosine-protein kinase receptor UFO (Homo sapiens) (UniProt P30530)
[5] = test system: Proto-oncogene tyrosine-protein kinase receptor Ret (Homo sapiens), P07949 [V804M]
[6] = target: Mitogen-activated protein kinase kinase kinase 20 (Homo sapiens) (UniProt Q9NYL2)
[7] = target: Serine/threonine-protein kinase haspin (Homo sapiens) (UniProt Q8TF76)
[8] = test system: Receptor-type tyrosine-protein kinase FLT3 (Homo sapiens), P36888 [R834Q]
[9] = test system: Tyrosine-protein kinase ABL1 (Homo sapiens), P00519 [F317I]
[10] = target: Serine/threonine-protein kinase ULK2 (Homo sapiens) (UniProt Q8IYT8)
[11] = target: Serine/threonine-protein kinase Nek11 (Homo sapiens) (UniProt Q8NG66)
[12] = target: Mitogen-activated protein kinase kinase kinase 5 (Homo sapiens) (UniProt Q99683)
[13] = target: Serine/threonine-protein kinase DCLK1 (Homo sapiens) (UniProt O15075)
[14] = test system: Epidermal growth factor receptor (Homo sapiens), P00533 [UNDEFINED MUTATION]
[15] = test system: Epidermal growth factor receptor (Homo sapiens), P00533 [UNDEFINED MUTATION]; remark: listed apart in the source
[16] = target: RAC-alpha serine/threonine-protein kinase (Homo sapiens) (UniProt P31749)
[17] = target: Phosphatidylinositol 5-phosphate 4-kinase type-2 beta (Homo sapiens) (UniProt P78356)
[18] = target: Beta-3 adrenergic receptor (Homo sapiens) (UniProt P13945); conditions: Compound concentration 10.0 uM
[19] = target: Tyrosine-protein kinase JAK1 (Homo sapiens) (UniProt P23458)
[20] = target: Serine/threonine-protein kinase TAO2 (Homo sapiens) (UniProt Q9UL54)
[21] = test system: Phosphatidylinositol 4,5-bisphosphate 3-kinase catalytic subunit alpha isoform (Homo sapiens), P42336 [I800L]
[22] = target: Interleukin-1 receptor-associated kinase 4 (Homo sapiens) (UniProt Q9NWZ3)
[23] = target: Cyclin-dependent kinase 4 (Homo sapiens) (UniProt P11802)
[24] = target: Serine/threonine-protein kinase RIO1 (Homo sapiens) (UniProt Q9BRS2)
[25] = target: Mitogen-activated protein kinase 15 (Homo sapiens) (UniProt Q8TD08)
[26] = target: Muscle, skeletal receptor tyrosine-protein kinase (Homo sapiens) (UniProt O15146)
[27] = target: Histamine H1 receptor (Homo sapiens) (UniProt P35367); conditions: Compound concentration 10.0 uM
[28] = test system: Receptor-type tyrosine-protein kinase FLT3 (Homo sapiens), P36888 [D835H]
[29] = target: Serine/threonine-protein kinase B-raf (Homo sapiens) (UniProt P15056)
[30] = target: Serine/threonine-protein kinase PAK 2 (Homo sapiens) (UniProt Q13177)
[31] = target: Cyclin-dependent kinase 8 (Homo sapiens) (UniProt P49336)
[32] = target: Tyrosine-protein kinase Lck (Homo sapiens) (UniProt P06239)
[33] = target: Ribosomal protein S6 kinase alpha-2 (Homo sapiens) (UniProt Q15349)
[34] = target: Casein kinase I isoform gamma-2 (Homo sapiens) (UniProt P78368)
[35] = target: Death-associated protein kinase 3 (Homo sapiens) (UniProt O43293)
[36] = target: Homeodomain-interacting protein kinase 4 (Homo sapiens) (UniProt Q8NE63)
[37] = target: Serine/threonine-protein kinase 38 (Homo sapiens) (UniProt Q15208)
[38] = test system: ALK tyrosine kinase receptor (Homo sapiens), Q9UM73 [L1196M]
[39] = target: MAP/microtubule affinity-regulating kinase 4 (Homo sapiens) (UniProt Q96L34)
[40] = target: Mitotic checkpoint serine/threonine-protein kinase BUB1 (Homo sapiens) (UniProt O43683)
[41] = target: Serine/threonine-protein kinase Nek2 (Homo sapiens) (UniProt P51955)
[42] = target: MAP kinase-activated protein kinase 5 (Homo sapiens) (UniProt Q8IW41)
[43] = target: Cyclin-dependent kinase 15 (Homo sapiens) (UniProt Q96Q40)
[44] = target: Platelet-derived growth factor receptor beta (Homo sapiens) (UniProt P09619)
[45] = target: Serine/threonine-protein kinase PLK4 (Homo sapiens) (UniProt O00444)
[46] = Compound concentration 1000.0 nM
[47] = Compound concentration 100.0 nM

Epidermal growth factor receptor (Homo sapiens), P00533 [UNDEFINED MUTATION], sequence (P00533 whole entry, looked up, change not shown): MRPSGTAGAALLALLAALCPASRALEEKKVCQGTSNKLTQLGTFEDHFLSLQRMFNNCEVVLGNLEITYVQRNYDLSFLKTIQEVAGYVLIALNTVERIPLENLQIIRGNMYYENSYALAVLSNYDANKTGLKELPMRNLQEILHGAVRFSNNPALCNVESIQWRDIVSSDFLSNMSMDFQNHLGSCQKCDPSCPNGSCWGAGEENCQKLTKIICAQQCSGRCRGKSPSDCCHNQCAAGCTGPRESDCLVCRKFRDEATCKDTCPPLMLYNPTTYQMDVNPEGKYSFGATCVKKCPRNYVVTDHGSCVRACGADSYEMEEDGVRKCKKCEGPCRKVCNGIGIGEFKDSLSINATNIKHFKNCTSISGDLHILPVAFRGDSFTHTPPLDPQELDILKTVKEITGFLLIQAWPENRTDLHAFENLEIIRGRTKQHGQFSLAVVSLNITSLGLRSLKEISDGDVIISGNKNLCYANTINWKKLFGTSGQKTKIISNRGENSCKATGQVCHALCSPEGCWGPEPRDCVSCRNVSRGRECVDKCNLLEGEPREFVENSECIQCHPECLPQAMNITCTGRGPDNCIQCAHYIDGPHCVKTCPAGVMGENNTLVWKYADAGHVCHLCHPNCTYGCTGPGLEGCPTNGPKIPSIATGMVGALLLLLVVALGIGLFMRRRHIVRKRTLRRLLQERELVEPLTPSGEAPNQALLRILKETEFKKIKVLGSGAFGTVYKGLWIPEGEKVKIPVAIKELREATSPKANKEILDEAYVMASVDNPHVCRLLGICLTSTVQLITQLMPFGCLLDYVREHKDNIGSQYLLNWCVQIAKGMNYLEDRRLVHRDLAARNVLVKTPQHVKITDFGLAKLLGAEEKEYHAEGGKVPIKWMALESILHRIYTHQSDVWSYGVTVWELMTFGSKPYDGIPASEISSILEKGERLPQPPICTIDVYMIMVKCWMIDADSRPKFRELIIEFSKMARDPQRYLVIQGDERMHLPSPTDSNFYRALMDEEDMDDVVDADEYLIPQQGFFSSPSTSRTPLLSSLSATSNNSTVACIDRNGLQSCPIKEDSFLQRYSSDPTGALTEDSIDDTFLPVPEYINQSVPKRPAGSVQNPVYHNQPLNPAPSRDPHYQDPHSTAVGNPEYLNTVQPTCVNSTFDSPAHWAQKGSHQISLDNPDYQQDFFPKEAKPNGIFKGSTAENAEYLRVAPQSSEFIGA
Mitogen-activated protein kinase kinase kinase 20 (Homo sapiens), sequence (Q9NYL2 2-800 limits assumed): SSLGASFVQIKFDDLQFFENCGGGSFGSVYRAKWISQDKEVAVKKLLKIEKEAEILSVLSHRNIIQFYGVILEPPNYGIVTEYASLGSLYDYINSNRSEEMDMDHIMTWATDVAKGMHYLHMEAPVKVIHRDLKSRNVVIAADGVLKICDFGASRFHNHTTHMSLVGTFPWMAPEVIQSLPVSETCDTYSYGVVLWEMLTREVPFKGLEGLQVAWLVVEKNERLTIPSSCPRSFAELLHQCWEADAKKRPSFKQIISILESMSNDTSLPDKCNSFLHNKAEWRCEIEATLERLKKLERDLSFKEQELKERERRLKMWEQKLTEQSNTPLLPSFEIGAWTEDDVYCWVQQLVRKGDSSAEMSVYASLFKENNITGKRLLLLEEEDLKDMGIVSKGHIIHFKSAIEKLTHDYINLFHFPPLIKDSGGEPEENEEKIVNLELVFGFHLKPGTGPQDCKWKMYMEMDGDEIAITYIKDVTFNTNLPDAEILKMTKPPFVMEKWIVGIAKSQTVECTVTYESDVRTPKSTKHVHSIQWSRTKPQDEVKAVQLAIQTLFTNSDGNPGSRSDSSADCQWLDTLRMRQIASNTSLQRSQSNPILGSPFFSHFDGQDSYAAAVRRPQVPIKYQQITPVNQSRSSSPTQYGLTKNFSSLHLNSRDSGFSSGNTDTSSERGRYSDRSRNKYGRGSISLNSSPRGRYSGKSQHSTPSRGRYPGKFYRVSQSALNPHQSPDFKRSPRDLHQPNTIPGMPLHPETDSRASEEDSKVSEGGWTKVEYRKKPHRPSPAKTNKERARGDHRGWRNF
Cyclin-dependent kinase 8 (Homo sapiens), sequence (P49336 whole entry): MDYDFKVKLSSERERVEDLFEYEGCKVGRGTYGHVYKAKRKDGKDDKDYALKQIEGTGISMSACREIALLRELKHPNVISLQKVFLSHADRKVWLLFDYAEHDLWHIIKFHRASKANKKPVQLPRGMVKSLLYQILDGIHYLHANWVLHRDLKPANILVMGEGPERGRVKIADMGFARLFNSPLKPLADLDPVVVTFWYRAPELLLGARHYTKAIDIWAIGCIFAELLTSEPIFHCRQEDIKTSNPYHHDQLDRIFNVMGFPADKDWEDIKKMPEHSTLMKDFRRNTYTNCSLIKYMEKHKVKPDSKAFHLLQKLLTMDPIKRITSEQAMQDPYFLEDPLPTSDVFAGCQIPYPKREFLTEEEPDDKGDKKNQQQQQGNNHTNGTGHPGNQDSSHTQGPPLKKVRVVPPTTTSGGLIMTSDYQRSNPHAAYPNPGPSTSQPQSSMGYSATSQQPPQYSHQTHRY
Interleukin-1 receptor-associated kinase 4 (Homo sapiens), sequence (Q9NWZ3 whole entry): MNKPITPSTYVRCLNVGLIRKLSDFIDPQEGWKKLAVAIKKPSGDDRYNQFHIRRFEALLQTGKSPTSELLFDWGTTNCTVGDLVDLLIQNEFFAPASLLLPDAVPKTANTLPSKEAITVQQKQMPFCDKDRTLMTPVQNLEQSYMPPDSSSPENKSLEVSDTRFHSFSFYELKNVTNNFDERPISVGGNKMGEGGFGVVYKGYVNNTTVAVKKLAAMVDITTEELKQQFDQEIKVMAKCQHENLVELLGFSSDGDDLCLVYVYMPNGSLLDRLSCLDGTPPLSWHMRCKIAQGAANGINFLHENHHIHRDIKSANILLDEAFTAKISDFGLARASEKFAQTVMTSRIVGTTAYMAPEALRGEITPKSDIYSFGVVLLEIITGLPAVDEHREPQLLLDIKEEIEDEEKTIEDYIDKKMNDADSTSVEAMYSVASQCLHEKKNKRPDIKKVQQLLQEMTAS
Mitotic checkpoint serine/threonine-protein kinase BUB1 (Homo sapiens), sequence (O43683 whole entry, looked up): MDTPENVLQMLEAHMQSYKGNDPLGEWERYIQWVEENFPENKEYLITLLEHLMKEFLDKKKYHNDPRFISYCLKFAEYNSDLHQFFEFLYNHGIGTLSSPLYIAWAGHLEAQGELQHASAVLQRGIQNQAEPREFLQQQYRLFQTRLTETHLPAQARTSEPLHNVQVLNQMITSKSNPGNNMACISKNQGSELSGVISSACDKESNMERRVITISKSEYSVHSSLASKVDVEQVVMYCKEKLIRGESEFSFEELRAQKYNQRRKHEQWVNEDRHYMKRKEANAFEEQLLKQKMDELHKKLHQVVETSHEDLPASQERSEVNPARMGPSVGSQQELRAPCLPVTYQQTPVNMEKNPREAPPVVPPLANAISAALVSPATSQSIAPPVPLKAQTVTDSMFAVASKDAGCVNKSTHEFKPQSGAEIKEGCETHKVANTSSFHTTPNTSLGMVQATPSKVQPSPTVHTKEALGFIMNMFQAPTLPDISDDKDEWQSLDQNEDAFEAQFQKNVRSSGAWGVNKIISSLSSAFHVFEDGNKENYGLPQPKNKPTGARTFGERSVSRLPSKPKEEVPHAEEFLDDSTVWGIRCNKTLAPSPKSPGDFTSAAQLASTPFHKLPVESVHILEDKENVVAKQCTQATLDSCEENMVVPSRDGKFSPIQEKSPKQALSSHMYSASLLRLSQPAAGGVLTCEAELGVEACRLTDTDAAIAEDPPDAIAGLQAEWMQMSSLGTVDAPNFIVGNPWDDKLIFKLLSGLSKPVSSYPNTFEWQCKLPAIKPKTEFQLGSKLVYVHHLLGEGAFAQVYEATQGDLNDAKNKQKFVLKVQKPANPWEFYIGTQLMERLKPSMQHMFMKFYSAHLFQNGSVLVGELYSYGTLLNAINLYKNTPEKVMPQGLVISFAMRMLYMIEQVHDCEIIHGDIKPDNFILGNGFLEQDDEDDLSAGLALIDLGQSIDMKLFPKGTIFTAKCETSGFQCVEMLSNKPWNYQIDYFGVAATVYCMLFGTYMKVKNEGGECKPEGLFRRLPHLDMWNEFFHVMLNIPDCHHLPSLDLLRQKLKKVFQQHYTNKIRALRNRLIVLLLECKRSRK
Serine/threonine-protein kinase B-raf (Homo sapiens), sequence (P15056 whole entry): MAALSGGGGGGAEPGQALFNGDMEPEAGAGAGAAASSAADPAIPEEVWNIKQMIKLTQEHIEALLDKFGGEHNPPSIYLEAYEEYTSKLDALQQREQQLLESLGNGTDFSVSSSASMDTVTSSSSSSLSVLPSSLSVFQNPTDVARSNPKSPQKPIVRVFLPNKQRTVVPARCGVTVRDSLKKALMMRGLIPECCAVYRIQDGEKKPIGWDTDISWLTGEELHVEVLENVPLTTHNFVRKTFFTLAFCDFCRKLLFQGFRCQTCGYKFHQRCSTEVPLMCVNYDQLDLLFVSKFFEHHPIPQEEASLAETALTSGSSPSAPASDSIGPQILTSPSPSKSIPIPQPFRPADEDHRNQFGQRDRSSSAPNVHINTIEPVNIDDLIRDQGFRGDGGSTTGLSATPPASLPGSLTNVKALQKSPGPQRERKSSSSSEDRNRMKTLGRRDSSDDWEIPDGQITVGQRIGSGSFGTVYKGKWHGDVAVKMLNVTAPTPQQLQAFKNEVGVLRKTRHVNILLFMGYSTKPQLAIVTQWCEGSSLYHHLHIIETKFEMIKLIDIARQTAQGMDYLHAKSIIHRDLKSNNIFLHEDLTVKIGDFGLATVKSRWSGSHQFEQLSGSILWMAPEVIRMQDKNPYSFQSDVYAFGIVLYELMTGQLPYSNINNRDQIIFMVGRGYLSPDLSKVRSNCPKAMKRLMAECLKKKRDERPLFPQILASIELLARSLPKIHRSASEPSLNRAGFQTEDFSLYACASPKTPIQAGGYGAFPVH

C[C@H](NC(=O)Nc1cc2[nH]ncc2c(CO)n1)c1ccccn1 [ERKi-NC]
residual activity [1, 46]: 100%
residual activity [2, 46]: 71.4%
residual activity [3, 46]: 100%
residual activity [4, 46]: 100%
residual activity [5, 46]: 81.7%
residual activity [6, 46]: 74.7%
residual activity [7, 46]: 72.1%
residual activity [8, 46]: 94.5%
residual activity [9, 46]: 100%
residual activity [10, 46]: 100%
residual activity [11, 46]: 57.7%
residual activity [12, 46]: 100%
residual activity [13, 46]: 71.1%
residual activity [14, 46]: 34.7%
residual activity [15, 46]: 86.6%
residual activity [16, 46]: 90%
residual activity [17, 46]: 99.5%
inhibition [18]: 13.6%
residual activity [19, 46]: 100%
residual activity [20, 46]: 82.3%
residual activity [21, 46]: 99.5%
residual activity [22, 46]: 100%
residual activity [23, 46]: 100%
residual activity [24, 46]: 100%
residual activity [25, 46]: 100%
residual activity [26, 46]: 100%
inhibition [27]: 4.18%
residual activity [28, 46]: 100%
residual activity [29, 46]: 100%
residual activity [30, 46]: 94.3%
residual activity [31, 46]: 100%
residual activity [32, 46]: 81.5%
residual activity [33, 46]: 95.3%
residual activity [34, 46]: 100%
residual activity [35, 46]: 100%
residual activity [36, 46]: 100%
residual activity [37, 46]: 81.4%
residual activity [38, 46]: 100%
residual activity [39, 46]: 100%
residual activity [40, 46]: 100%
residual activity [41, 46]: 96.9%
residual activity [42, 46]: 100%
residual activity [43, 46]: 97.4%
residual activity [44, 46]: 100%
residual activity [45, 46]: 100%

C[C@@H](NC(=O)Nc1cc2[nH]ncc2c(CO)n1)c1ccccc1 [ERKi]
residual activity [1, 47]: 100%
residual activity [2, 47]: 80.9%
residual activity [3, 47]: 81.4%
residual activity [4, 47]: 77.9%
residual activity [5, 47]: 100%
residual activity [6, 47]: 100%
residual activity [7, 47]: 53.7%
residual activity [8, 47]: 56.8%
residual activity [9, 47]: 100%
residual activity [10, 47]: 79.7%
residual activity [11, 47]: 83.4%
residual activity [12, 47]: 100%
residual activity [13, 47]: 90.3%
residual activity [14, 47]: 55.9%
residual activity [15, 47]: 72.6%
residual activity [16, 47]: 100%
residual activity [17, 47]: 45%
inhibition [18]: 24.1%
residual activity [19, 47]: 91.2%
residual activity [20, 47]: 74.7%
residual activity [21, 47]: 66%
residual activity [22, 47]: 76.1%
residual activity [23, 47]: 83.1%
residual activity [24, 47]: 100%
residual activity [25, 47]: 37.1%
residual activity [26, 47]: 86.8%
inhibition [27]: -7.28%
residual activity [28, 47]: 100%
residual activity [29, 47]: 86.9%
residual activity [30, 47]: 86.3%
residual activity [31, 47]: 76.1%
residual activity [32, 47]: 94.8%
residual activity [33, 47]: 94.1%
residual activity [34, 47]: 100%
residual activity [35, 47]: 77.4%
residual activity [36, 47]: 77.5%
residual activity [37, 47]: 75.2%
residual activity [38, 47]: 96.9%
residual activity [39, 47]: 96%
residual activity [40, 47]: 96%
residual activity [41, 47]: 100%
residual activity [42, 47]: 80%
residual activity [43, 47]: 80.6%
residual activity [44, 47]: 95.8%
residual activity [45, 47]: 71.6%
